According to PubChem BioAssay AID1963978 (Molecular Pharmacology Branch, DTP, NCI, 2024):

Tested on: 616215-338-R-J1-PDC spheroids with HUVEC/MSC, viability
Assay: Anticancer human tumor 616215-338-R-J1-PDC patient-derived colon adenocarcinoma cell line growth inhibition [PI3K]
Conditions: for IC50: curve of first compound; for viability, T/C: stronger effect = lower value
Method in brief: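 Agents were dosed from a top concentration near clinical Cmax (otherwise 10 microM) in half-log decrements, alone or combined with PI3K inhibitors. The spheroids contain tumor cells plus endothelial (HUVEC) and MSC stroma; viability is measured.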

[1] = second compound 0.0316 µM, first compound 0.0316 µM
[2] = second compound 0.0316 µM, first compound 0.1 µM
[3] = second compound 0.0316 µM, first compound 0.316 µM
[4] = second compound 0.0316 µM, first compound 1 µM
[5] = second compound 0.0316 µM, first compound 3.16 µM
[6] = second compound 0.0316 µM, first compound 10 µM
[7] = second compound 0.1 µM, first compound 0.0316 µM
[8] = second compound 0.1 µM, first compound 0.1 µM
[9] = second compound 0.1 µM, first compound 0.316 µM
[10] = second compound 0.1 µM, first compound 1 µM
[11] = second compound 0.1 µM, first compound 3.16 µM
[12] = second compound 0.1 µM, first compound 10 µM
[13] = second compound 0.316 µM, first compound 0.0316 µM
[14] = second compound 0.316 µM, first compound 0.1 µM
[15] = second compound 0.316 µM, first compound 0.316 µM
[16] = second compound 0.316 µM, first compound 1 µM
[17] = second compound 0.316 µM, first compound 3.16 µM
[18] = second compound 0.316 µM, first compound 10 µM
[19] = second compound 1 µM, first compound 0.0316 µM
[20] = second compound 1 µM, first compound 0.1 µM
[21] = second compound 1 µM, first compound 0.316 µM
[22] = second compound 1 µM, first compound 1 µM
[23] = second compound 1 µM, first compound 3.16 µM
[24] = second compound 1 µM, first compound 10 µM
[25] = second compound 3.16 µM, first compound 0.0316 µM
[26] = second compound 3.16 µM, first compound 0.1 µM
[27] = second compound 3.16 µM, first compound 0.316 µM
[28] = second compound 3.16 µM, first compound 1 µM
[29] = second compound 3.16 µM, first compound 3.16 µM
[30] = second compound 3.16 µM, first compound 10 µM
[31] = second compound 10 µM, first compound 0.0316 µM
[32] = second compound 10 µM, first compound 0.1 µM
[33] = second compound 10 µM, first compound 0.316 µM
[34] = second compound 10 µM, first compound 1 µM
[35] = second compound 10 µM, first compound 3.16 µM
[36] = second compound 10 µM, first compound 10 µM
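Further: spheroids exposed to agents for seven days before the viability read.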

## CC(Cn1ccc(-c2ccc(C#N)c(Cl)c2)n1)NC(=O)c1cc(C(C)O)[nH]n1 (stereo not drawn) + Cc1nc(NC(=O)N2CCCC2C(N)=O)sc1-c1ccnc(C(C)(C)C(F)(F)F)c1
Second compound 0.0316 µM
  IC50: > 10 µM
Second compound 0.1 µM
  IC50: > 10 µM
Second compound 0.316 µM
  IC50: > 10 µM
Second compound 1 µM
  IC50: > 10 µM
Second compound 3.16 µM
  IC50: > 10 µM
Second compound 10 µM
  IC50: > 10 µM
[1]
  viability, T/C: 105%
[2]
  viability, T/C: 101%
[3]
  viability, T/C: 114%
[4]
  viability, T/C: 97.5%
[5]
  viability, T/C: 102%
[6]
  viability, T/C: 103%
[7]
  viability, T/C: 94.3%
[8]
  viability, T/C: 89.8%
[9]
  viability, T/C: 98.1%
[10]
  viability, T/C: 95.7%
[11]
  viability, T/C: 101%
[12]
  viability, T/C: 97.4%
[13]
  viability, T/C: 98.6%
[14]
  viability, T/C: 104%
[15]
  viability, T/C: 104%
[16]
  viability, T/C: 99.7%
[17]
  viability, T/C: 108%
[18]
  viability, T/C: 95.5%
[19]
  viability, T/C: 111%
[20]
  viability, T/C: 102%
[21]
  viability, T/C: 95.4%
[22]
  viability, T/C: 102%
[23]
  viability, T/C: 100%
[24]
  viability, T/C: 98.5%
[25]
  viability, T/C: 101%
[26]
  viability, T/C: 99.5%
[27]
  viability, T/C: 96.7%
[28]
  viability, T/C: 103%
[29]
  viability, T/C: 96.1%
[30]
  viability, T/C: 108%
[31]
  viability, T/C: 105%
[32]
  viability, T/C: 100%
[33]
  viability, T/C: 90.8%
[34]
  viability, T/C: 99.3%
[35]
  viability, T/C: 95.9%
[36]
  viability, T/C: 84.1%

## CC(C)NCC(C(=O)N1CCN(c2ncnc3c2C(C)CC3O)CC1)c1ccc(Cl)cc1 (stereo not drawn) + Cc1nc(NC(=O)N2CCCC2C(N)=O)sc1-c1ccnc(C(C)(C)C(F)(F)F)c1
Second compound 0.0316 µM
  IC50: 8.82 µM
Second compound 0.1 µM
  IC50: 8.31 µM
Second compound 0.316 µM
  IC50: 7.19 µM
Second compound 1 µM
  IC50: 7.82 µM
Second compound 3.16 µM
  IC50: 7.42 µM
Second compound 10 µM
  IC50: 4.35 µM
[1]
  viability, T/C: 97.2%
[2]
  viability, T/C: 91.6%
[3]
  viability, T/C: 91.8%
[4]
  viability, T/C: 98.3%
[5]
  viability, T/C: 91.8%
[6]
  viability, T/C: 44.9%
[7]
  viability, T/C: 89.5%
[8]
  viability, T/C: 87.4%
[9]
  viability, T/C: 92.8%
[10]
  viability, T/C: 105%
[11]
  viability, T/C: 90.1%
[12]
  viability, T/C: 42%
[13]
  viability, T/C: 103%
[14]
  viability, T/C: 92.9%
[15]
  viability, T/C: 98.7%
[16]
  viability, T/C: 104%
[17]
  viability, T/C: 70.8%
[18]
  viability, T/C: 41.6%
[19]
  viability, T/C: 98.9%
[20]
  viability, T/C: 97.6%
[21]
  viability, T/C: 95.6%
[22]
  viability, T/C: 101%
[23]
  viability, T/C: 84.9%
[24]
  viability, T/C: 39.8%
[25]
  viability, T/C: 111%
[26]
  viability, T/C: 101%
[27]
  viability, T/C: 102%
[28]
  viability, T/C: 90.4%
[29]
  viability, T/C: 71.4%
[30]
  viability, T/C: 42.2%
[31]
  viability, T/C: 96%
[32]
  viability, T/C: 95.3%
[33]
  viability, T/C: 91.6%
[34]
  viability, T/C: 79.2%
[35]
  viability, T/C: 57.8%
[36]
  viability, T/C: 30.3%

## CNC(=O)c1ccc(N2C(=S)N(c3ccc(C#N)c(C(F)(F)F)c3)C(=O)C2(C)C)cc1F + CC(Nc1ncnc2nc[nH]c12)c1cc2cccc(Cl)c2c(=O)n1-c1ccccc1
Second compound 0.0316 µM
  IC50: > 10 µM
Second compound 0.1 µM
  IC50: > 10 µM
Second compound 0.316 µM
  IC50: > 10 µM
Second compound 1 µM
  IC50: > 10 µM
Second compound 3.16 µM
  IC50: > 10 µM
Second compound 10 µM
  IC50: > 10 µM
[1]
  viability, T/C: 98.5%
[2]
  viability, T/C: 107%
[3]
  viability, T/C: 109%
[4]
  viability, T/C: 106%
[5]
  viability, T/C: 104%
[6]
  viability, T/C: 101%
[7]
  viability, T/C: 91%
[8]
  viability, T/C: 98.9%
[9]
  viability, T/C: 96%
[10]
  viability, T/C: 97.9%
[11]
  viability, T/C: 108%
[12]
  viability, T/C: 114%
[13]
  viability, T/C: 97.2%
[14]
  viability, T/C: 97%
[15]
  viability, T/C: 105%
[16]
  viability, T/C: 97.1%
[17]
  viability, T/C: 110%
[18]
  viability, T/C: 112%
[19]
  viability, T/C: 113%
[20]
  viability, T/C: 109%
[21]
  viability, T/C: 111%
[22]
  viability, T/C: 105%
[23]
  viability, T/C: 111%
[24]
  viability, T/C: 114%
[25]
  viability, T/C: 95.6%
[26]
  viability, T/C: 94.3%
[27]
  viability, T/C: 111%
[28]
  viability, T/C: 104%
[29]
  viability, T/C: 103%
[30]
  viability, T/C: 106%
[31]
  viability, T/C: 104%
[32]
  viability, T/C: 117%
[33]
  viability, T/C: 117%
[34]
  viability, T/C: 116%
[35]
  viability, T/C: 110%
[36]
  viability, T/C: 116%

## CNC(=O)c1ccc(N2C(=S)N(c3ccc(C#N)c(C(F)(F)F)c3)C(=O)C2(C)C)cc1F + Cc1nc(NC(=O)N2CCCC2C(N)=O)sc1-c1ccnc(C(C)(C)C(F)(F)F)c1
Second compound 0.0316 µM
  IC50: > 10 µM
Second compound 0.1 µM
  IC50: > 10 µM
Second compound 0.316 µM
  IC50: > 10 µM
Second compound 1 µM
  IC50: > 10 µM
Second compound 3.16 µM
  IC50: > 10 µM
Second compound 10 µM
  IC50: > 10 µM
[1]
  viability, T/C: 97.6%
[2]
  viability, T/C: 95.1%
[3]
  viability, T/C: 102%
[4]
  viability, T/C: 96.5%
[5]
  viability, T/C: 95.6%
[6]
  viability, T/C: 93%
[7]
  viability, T/C: 116%
[8]
  viability, T/C: 86%
[9]
  viability, T/C: 94.7%
[10]
  viability, T/C: 99%
[11]
  viability, T/C: 91.9%
[12]
  viability, T/C: 103%
[13]
  viability, T/C: 94%
[14]
  viability, T/C: 99.9%
[15]
  viability, T/C: 109%
[16]
  viability, T/C: 97.9%
[17]
  viability, T/C: 94.4%
[18]
  viability, T/C: 93.1%
[19]
  viability, T/C: 101%
[20]
  viability, T/C: 96.4%
[21]
  viability, T/C: 104%
[22]
  viability, T/C: 97.4%
[23]
  viability, T/C: 101%
[24]
  viability, T/C: 104%
[25]
  viability, T/C: 101%
[26]
  viability, T/C: 93.8%
[27]
  viability, T/C: 91.3%
[28]
  viability, T/C: 90%
[29]
  viability, T/C: 93.5%
[30]
  viability, T/C: 90.6%
[31]
  viability, T/C: 90.6%
[32]
  viability, T/C: 93.3%
[33]
  viability, T/C: 98.4%
[34]
  viability, T/C: 98.9%
[35]
  viability, T/C: 99.4%
[36]
  viability, T/C: 54.6%
